Laboratory results reported in US10233426B2, “Method for inducing cardiac differentiation of pluripotent stem cell with low-molecular compounds” (KYOTO UNIVERSITY, priority 2014, dated 2019).

Key:
[1] = system: monkey ES cell line transfected with an αMHC promoter-driven GFP gene; assay: Chemical screening: GFP fluorometry for cardiac differentiation of monkey ES cells; format: cell-based, cynomolgus monkey; conditions: for increase of cardiac differentiation: alone or in combination with KY02111 (10 μM in late phase); for intensity of GFP fluorescence relative to control culture (KY02111 only, assigned to one): GFP fluorometry day 9; for cardiac differentiation (screening conclusion): under appropriate conditions, Table 1
Procedure: Pluripotent stem cells were cultured in culture media to which the test compounds were added in different concentrations (0.3 μM, 1 μM, 3 μM and 10 μM) in early phase and late phase of differentiation of the cells. Cells from the culture were subjected to GFP fluorometry in accordance with the cardiac differentiation protocol shown in FIG. 1a. Besides the test compounds, 10 μM KY02111 was included in the culture media for the late phase differentiation. The intensity of GFP fluorescence determined in the cells from the control culture, which was cultured with no test compound other than KY02111, was assigned to one.
The scheme of chemical screening is illustrated in FIG. 1a. Compounds were screened for the ability of increasing GFP fluorescence compared with the control (KY02111 alone) using a monkey ES cell line transfected with an αMHC promoter-driven GFP gene (Minami et al., Cell Reports 2, 1448-1460, 2012, which is incorporated herein by reference). The ES cell line was derived from a monkey ES cell line (cynomolgus monkey CMK6.4) by transfecting the cells with a vector which expresses green fluorescent protein (GFP) under control by a promoter of α-MHC gene (a marker of cardiac differentiation). The cells were plated at 4.0×10^5 cells per well in 6 well plates (Asahi Glass/5816-006: Ezview culture plates) and cultured for nine days in an IMDM-based medium for cardiac differentiation (200 ml IMDM medium (Sigma 13390), with 50 ml calf serum (GIBCO 10099-141), 2.5 ml MEM non-essential amino acid solution (Sigma M7145), 2.5 ml penicillin-streptomycin ([…]), 2.5 ml 200 mM L-glutamine, 2 ul 2-mercaptoethanol (Sigma M7522), and 255 ul 5N NaOH). Each test compound was added to the medium at different concentrations in the early phase (day 0 to day 3) and the late phase (day 4 to day 7) of cardiac differentiation. Cells obtained from the culture on day 9 were subjected to GFP fluorometry with a Metamorph imaging system. […]

[2] = system: mesoderm-related genes (MSGN1, T, MIXL1 and NODAL); assay: Quantitative PCR for expression of mesoderm-related genes under PFCD condition; format: cell-based, human; conditions: IMR90-1; 1 μM XAV939, 0.3 μM A419259, 10 μM AG1478, 3 μM KY03-I, day 3 to day 4; mRNA on day 4; FIG. 3f
Procedure: A human iPS cell line (IMR90-1 cultured on MEF feeder) was cultured in PFCD culture media, to which 2 μM CHIR99021 or 0.3 μM PMA or the both (CHIR99021+PMA) were added for early phase of cardiac differentiation (day 0 to day 2). On day 2, mRNA was extracted the cultured cells and analyzed by quantitative PCR for the expression of mesoderm-related genes (MSGN1, T, MIXL1 and NODAL) (FIG. 3e). As a control, cells were cultured similarly, but with DMSO in place of the test compounds. The gene expression level in the control cells was assigned to one. […] In contrast, the expression of the genes was reduced when PMA was added to the culture. However, the reduction in gene expression by PMA was counteracted and reversed when CHIR99021 was added in combination with PMA (in accordance with the optimal PFCD condition).
A human iPS cell line (IMR90-1 from culture on MEF feeder) was cultured in PFCD media with one of 1 μM XAV939, 0.3 μM A419259, 10 μM AG1478 or 3 μM KY03-I, or all of them (XAV939+A419259+AG1478+KY03-I) in late phase of cardiac differentiation (day 3 to day 4). On day 4, mRNA was extracted from the cultured cells and analyzed by quantitative PCR for the expression of mesoderm-related genes (MSGN1, T, MIXL1 and NODAL) (FIG. 3f).

[3] = Induction of cardiac differentiation by a procedure as described in the Examples in WO 2012/026491; format: cell-based
[4] = 1 to 3 μM in late phase, FIG. 1e
[5] = test compound 0.3 μM in Early phase (day 0 to day 3), 10 μM KY02111 in late phase
[6] = test compound 0.3 μM in Late phase (day 4 to day 7) with 10 μM KY02111
[7] = test compound 1 μM in Early phase (day 0 to day 3), 10 μM KY02111 in late phase
[8] = test compound 1 μM in Late phase (day 4 to day 7) with 10 μM KY02111
[9] = test compound 3 μM in Early phase (day 0 to day 3), 10 μM KY02111 in late phase
[10] = test compound 3 μM in Late phase (day 4 to day 7) with 10 μM KY02111
[11] = test compound 10 μM in Early phase (day 0 to day 3), 10 μM KY02111 in late phase
[12] = test compound 10 μM in Late phase (day 4 to day 7) with 10 μM KY02111

Structure (SMILES)	increase of cardiac differentiation [1, 4]	intensity of GFP fluorescence relative to control culture (KY02111 only, assigned to one) [1, 5]	intensity of GFP fluorescence relative to control culture (KY02111 only, assigned to one) [1, 6]	intensity of GFP fluorescence relative to control culture (KY02111 only, assigned to one) [1, 7]	intensity of GFP fluorescence relative to control culture (KY02111 only, assigned to one) [1, 8]	intensity of GFP fluorescence relative to control culture (KY02111 only, assigned to one) [1, 9]	intensity of GFP fluorescence relative to control culture (KY02111 only, assigned to one) [1, 10]	intensity of GFP fluorescence relative to control culture (KY02111 only, assigned to one) [1, 11]	intensity of GFP fluorescence relative to control culture (KY02111 only, assigned to one) [1, 12]	cardiac differentiation (screening conclusion) [1]	expression level of NODAL [2]	expression of MSGN1, T and MIXL1 [2]	effect of inducing cardiac differentiation [3]	increase of cardiac differentiation ([1]; 3 to 10 μM in early phase, FIG. 1b)
CN1CCN(C2CCC(n3cc(-c4ccc(Oc5ccccc5)cc4)c4c(N)ncnc43)CC2)CC1 (centres unmarked) [A419259]	two- to five-fold	0.15	1.7	0.01	5.56	0	4.8	0	0.32	promoted	not significantly different	reduced		
COc1ccc(CC(=O)Nc2nc3ccc(I)cc3s2)cc1OC [KY01-I, 2-(2-(3,4-dimethoxyphenyl)acetamido)-6-iodobenzothiazole]													found to have the effect of inducing cardiac differentiation	
COc1ccc(CCC(=O)Nc2nc3ccc(I)cc3s2)cc1OC [KY02-I, 2-(3-(3,4-dimethoxyphenyl)propanamido)-6-iodobenzothiazole]													found to have the effect of inducing cardiac differentiation	
CCN(CC)CCCCNc1ncc2cc(-c3cc(OC)cc(OC)c3)c(NC(=O)NC(C)(C)C)nc2n1 [PD173074]		0.02	0.23	0	0.08	0	0	0	0					
OCCn1cc(-c2cnc3nnn(Cc4ccc5ncccc5c4)c3n2)cn1 [PF042I7903]		1.02	1.09	0.99	1.3	0.91	0.82	0.62	0.78					
COc1cc([C@@H]2c3cc4c(cc3[C@H](O)[C@H]3COC(=O)[C@@H]23)OCO4)cc(OC)c1OC [PPP]		0.2	0.39	0	0.2	0	0	0	0					
CC(=O)O[C@@]12C[C@@H](C)[C@@]3(O)[C@@H](C=C(CO)C[C@]4(O)C(=O)C(C)=C[C@@H]34)[C@@H]1C2(C)C [Prostratin]		0.79	0.72	2.31	0.3	5.42	0.01	6.88	0	promoted				three- to eight-fold
Cc1cc(Nc2ncc3c(n2)N(C)C(=O)N(c2cc(NC(=O)c4cccc(C(F)(F)F)c4)ccc2C)C3)n(C)n1 [SC-1]		0.16	0.14	0	0	0	0	0	0					
CCCOc1ccc(CCC(=O)Nc2nc3ccc(I)cc3s2)cc1OC [SO2077, 2-(3-(3-methoxy-4-propoxyphenyl)propanamido)-6-iodobenzothiazole]													found to have the effect of inducing cardiac differentiation	
Cc1c[nH]c(/C=C2\C(=O)Nc3ccccc32)c1CCC(=O)O [SU5402]		0.09	0.89	0	1	0	0.46	0	0.06					
CN(C)S(=O)(=O)c1ccc2c(c1)/C(=C/c1cc3c([nH]1)CCCC3)C(=O)N2 [SU6656]	two- to five-fold													
Oc1nc(-c2ccc(C(F)(F)F)cc2)nc2c1CSCC2 [XAV939]											not significantly different	reduced		
